The values that follow come from ChEMBL document CHEMBL4414631 (J Med Chem, 2019).

Each structure is given as a SMILES string.

Usually IC50 stands for the point on the concentration scale where inhibition reaches its midpoint. Read a high IC50 as a need for much substance. As a reminder, the logD is the decadic logarithm of the distribution of all forms, ionised or not, between an organic phase and buffer at a given pH. The low end stands for lower lipophilicity, the high end for higher lipophilicity.

In data set [1] the target is Phosphatidylinositol 4,5-bisphosphate 3-kinase catalytic subunit beta isoform (Homo sapiens, UniProt P42338). The data set can be described thus: Inhibition of PI3Kbeta (unknown origin) using biotin-PIP3 as substrate preincubated for 15 mins followed by substrate addition and measured after 60 mins by fluorescence polarization assay. For orientation: Fluorescence polarisation rises when a labelled molecule tumbles more slowly, as on binding a larger partner.
Chain of Phosphatidylinositol 4,5-bisphosphate 3-kinase catalytic subunit beta isoform (P42338 whole entry, canonical isoform): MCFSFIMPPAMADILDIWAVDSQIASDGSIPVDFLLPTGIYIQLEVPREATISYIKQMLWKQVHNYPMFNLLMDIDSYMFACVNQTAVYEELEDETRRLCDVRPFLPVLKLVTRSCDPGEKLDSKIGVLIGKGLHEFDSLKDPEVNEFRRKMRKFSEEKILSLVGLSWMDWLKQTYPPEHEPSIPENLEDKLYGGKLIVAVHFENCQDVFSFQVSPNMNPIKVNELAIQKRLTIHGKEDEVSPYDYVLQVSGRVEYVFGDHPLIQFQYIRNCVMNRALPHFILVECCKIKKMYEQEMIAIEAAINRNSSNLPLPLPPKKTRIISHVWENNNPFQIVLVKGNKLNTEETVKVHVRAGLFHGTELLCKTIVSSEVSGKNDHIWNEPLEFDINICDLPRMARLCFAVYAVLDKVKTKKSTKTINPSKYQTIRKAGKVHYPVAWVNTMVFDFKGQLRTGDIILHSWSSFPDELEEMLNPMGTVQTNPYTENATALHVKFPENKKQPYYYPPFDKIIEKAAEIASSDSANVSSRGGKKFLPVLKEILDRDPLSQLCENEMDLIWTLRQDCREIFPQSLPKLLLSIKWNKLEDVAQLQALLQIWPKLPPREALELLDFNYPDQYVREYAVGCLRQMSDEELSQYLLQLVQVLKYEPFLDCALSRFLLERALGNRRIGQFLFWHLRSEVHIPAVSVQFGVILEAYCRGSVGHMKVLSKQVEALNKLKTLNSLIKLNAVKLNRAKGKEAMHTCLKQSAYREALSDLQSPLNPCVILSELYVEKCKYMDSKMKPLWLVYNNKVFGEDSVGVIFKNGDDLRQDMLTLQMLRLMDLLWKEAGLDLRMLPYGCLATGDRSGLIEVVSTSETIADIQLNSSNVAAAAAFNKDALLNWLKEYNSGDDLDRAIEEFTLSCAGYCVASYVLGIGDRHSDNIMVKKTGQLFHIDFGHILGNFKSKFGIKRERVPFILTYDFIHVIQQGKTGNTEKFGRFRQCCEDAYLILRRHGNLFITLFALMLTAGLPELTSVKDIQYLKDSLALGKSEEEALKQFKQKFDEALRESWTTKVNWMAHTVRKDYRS

Data set [2] can be described thus: Lipophilicity, logD of compound at pH 7.4 by HPLC-MS analysis. The conditions noted are these: buffer.
In data set [3] the target is Phosphatidylinositol 4,5-bisphosphate 3-kinase catalytic subunit alpha isoform (Homo sapiens, UniProt P42336).
Chain of Phosphatidylinositol 4,5-bisphosphate 3-kinase catalytic subunit alpha isoform (P42336 whole entry, canonical isoform): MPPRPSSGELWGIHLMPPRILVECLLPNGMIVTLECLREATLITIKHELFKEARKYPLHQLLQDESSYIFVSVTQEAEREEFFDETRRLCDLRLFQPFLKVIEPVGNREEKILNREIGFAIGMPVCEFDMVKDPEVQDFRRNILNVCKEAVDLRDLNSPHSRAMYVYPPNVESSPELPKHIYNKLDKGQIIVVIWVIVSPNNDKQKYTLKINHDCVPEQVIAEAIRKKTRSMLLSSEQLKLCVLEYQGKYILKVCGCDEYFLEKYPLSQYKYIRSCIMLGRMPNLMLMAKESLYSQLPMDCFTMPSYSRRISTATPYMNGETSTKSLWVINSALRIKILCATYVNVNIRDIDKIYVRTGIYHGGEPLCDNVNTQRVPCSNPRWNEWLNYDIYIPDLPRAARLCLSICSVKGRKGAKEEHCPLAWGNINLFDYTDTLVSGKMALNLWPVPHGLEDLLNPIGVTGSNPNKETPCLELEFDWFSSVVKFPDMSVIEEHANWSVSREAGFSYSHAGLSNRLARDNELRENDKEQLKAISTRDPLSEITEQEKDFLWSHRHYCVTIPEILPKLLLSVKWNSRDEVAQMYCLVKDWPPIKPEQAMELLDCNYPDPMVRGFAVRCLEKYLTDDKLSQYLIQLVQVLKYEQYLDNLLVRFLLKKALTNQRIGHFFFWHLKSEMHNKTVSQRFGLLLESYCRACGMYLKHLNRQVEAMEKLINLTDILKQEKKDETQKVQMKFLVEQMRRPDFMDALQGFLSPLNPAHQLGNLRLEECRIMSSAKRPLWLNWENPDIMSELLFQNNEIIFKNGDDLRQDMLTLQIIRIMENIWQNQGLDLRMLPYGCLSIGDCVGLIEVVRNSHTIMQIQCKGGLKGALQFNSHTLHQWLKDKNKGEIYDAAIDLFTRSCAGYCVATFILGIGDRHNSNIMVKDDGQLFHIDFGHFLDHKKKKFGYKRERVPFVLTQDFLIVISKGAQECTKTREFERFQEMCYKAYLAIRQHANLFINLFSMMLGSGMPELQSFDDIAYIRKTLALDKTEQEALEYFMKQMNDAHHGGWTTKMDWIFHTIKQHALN
Description: Inhibition of PI3Kalpha (unknown origin) using biotin-PIP3 as substrate preincubated for 15 mins followed by substrate addition and measured after 60 mins by fluorescence polarization assay
Data set [4] concerns the target T1, Phosphatidylinositol 4,5-bisphosphate 3-kinase catalytic subunit delta isoform (Homo sapiens, UniProt O00329).
T1 sequence (O00329 whole entry): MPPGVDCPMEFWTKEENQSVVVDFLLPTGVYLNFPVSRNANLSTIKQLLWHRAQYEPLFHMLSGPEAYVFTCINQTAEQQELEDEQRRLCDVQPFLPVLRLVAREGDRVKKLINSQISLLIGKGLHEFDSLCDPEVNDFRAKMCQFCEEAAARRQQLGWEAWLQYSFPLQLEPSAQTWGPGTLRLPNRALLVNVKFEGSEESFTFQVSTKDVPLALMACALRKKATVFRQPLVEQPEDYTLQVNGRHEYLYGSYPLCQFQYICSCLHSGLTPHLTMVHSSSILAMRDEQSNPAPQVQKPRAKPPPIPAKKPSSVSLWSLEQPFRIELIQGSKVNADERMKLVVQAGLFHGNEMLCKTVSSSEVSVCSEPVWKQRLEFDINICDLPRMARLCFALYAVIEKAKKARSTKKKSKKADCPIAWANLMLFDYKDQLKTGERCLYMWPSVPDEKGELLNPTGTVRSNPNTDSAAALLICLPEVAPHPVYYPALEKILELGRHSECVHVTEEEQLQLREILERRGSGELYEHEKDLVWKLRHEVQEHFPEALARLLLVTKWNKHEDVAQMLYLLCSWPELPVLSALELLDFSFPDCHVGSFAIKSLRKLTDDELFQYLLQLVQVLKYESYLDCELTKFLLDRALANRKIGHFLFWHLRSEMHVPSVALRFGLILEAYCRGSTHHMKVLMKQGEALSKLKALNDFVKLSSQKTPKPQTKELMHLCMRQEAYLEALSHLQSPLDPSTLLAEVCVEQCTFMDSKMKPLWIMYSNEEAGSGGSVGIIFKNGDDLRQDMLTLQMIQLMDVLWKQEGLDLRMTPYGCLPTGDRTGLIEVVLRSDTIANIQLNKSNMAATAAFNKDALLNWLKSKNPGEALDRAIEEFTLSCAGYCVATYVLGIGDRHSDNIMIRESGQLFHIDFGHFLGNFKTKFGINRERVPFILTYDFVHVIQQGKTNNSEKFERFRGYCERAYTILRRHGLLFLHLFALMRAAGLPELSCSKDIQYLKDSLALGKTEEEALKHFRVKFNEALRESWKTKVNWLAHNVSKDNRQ
Description: Inhibition of PI3Kdelta (unknown origin) using biotin-PIP3 as substrate preincubated for 15 mins followed by substrate addition and measured after 60 mins by fluorescence polarization assay

Data set [5] concerns the target Phosphatidylinositol 4,5-bisphosphate 3-kinase catalytic subunit gamma isoform (Homo sapiens, UniProt P48736).
Description: Inhibition of PI3Kgamma (unknown origin) using biotin-PIP3 as substrate preincubated for 15 mins followed by substrate addition and measured after 60 mins by fluorescence polarization assay

Chain of Phosphatidylinositol 4,5-bisphosphate 3-kinase catalytic subunit gamma isoform (P48736 whole entry, canonical isoform): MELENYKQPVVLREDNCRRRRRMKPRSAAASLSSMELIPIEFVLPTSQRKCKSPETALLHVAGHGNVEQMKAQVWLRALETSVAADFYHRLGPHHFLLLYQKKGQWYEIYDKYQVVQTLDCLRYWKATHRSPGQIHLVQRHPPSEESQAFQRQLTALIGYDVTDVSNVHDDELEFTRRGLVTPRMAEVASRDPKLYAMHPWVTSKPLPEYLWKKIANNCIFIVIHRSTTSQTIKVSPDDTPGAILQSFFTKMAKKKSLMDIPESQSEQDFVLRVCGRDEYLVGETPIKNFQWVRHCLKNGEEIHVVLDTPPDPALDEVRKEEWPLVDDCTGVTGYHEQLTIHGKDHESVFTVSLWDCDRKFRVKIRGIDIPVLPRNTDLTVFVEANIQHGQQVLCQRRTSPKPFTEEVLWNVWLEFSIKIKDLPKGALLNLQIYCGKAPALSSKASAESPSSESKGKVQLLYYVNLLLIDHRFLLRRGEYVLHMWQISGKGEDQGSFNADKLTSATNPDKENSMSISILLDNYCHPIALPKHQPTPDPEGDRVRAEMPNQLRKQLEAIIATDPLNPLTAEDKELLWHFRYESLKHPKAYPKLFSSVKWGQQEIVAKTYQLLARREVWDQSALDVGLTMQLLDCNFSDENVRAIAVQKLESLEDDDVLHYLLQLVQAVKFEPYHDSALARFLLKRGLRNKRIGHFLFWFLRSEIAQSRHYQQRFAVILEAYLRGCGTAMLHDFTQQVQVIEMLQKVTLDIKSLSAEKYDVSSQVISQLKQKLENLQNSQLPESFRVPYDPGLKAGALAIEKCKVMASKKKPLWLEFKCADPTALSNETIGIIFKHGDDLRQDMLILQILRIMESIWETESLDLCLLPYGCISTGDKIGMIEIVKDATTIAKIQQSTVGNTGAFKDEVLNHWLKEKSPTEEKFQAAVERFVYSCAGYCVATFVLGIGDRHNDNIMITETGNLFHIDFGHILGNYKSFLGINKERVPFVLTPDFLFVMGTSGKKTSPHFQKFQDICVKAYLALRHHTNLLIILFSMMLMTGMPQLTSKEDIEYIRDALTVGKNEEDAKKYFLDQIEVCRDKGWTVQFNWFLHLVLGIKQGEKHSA

Turning to `CS(=O)(=O)NC1CCN(Cc2cc3nc(-c4cccc5[nH]ncc45)nc(N4CCOCC4)c3s2)CC1`, the IC50 in data set [1] was 1260 nM; in data set [3], 126 nM; in data set [4], 39.8 nM; in data set [5] it was 794 nM. The same compound showed a logD in data set [2] of 3.8.
In the same order, the values of `CN(C1CCCN(Cc2cc3nc(-c4cccc5[nH]ncc45)nc(N4CCOCC4)c3s2)C1)S(C)(=O)=O` (racemic) are 2510 nM, 200 nM, 20 nM, 794 nM and 4.9.
In the same order, the values of `CC(=O)NC1CCN(Cc2cc3nc(-c4cccc5[nH]ncc45)nc(N4CCOCC4)c3s2)C1` (racemic) are 3980 nM, 501 nM, 251 nM, 1260 nM and 3.
As for `CC(=O)N(C)[C@@H]1CCN(Cc2cc3nc(-c4cnc(N)nc4)nc(N4CCOCC4)c3s2)C1`, the half-maximal inhibitory concentration (IC50) was 398 nM in data set [1], 31.6 nM in data set [3], 7.94 nM in data set [4] and 25.1 nM in data set [5]. For the same compound, the pH-dependent lipophilicity (logD) in data set [2] came out at 2.5.
As for `CC(=O)N[C@H]1CCN(Cc2cc3nc(-c4cnc(N)nc4)nc(N4CCOCC4)c3s2)C1`, the half-maximal inhibitory concentration (IC50) in data set [1] was 3980 nM; in data set [3], 200 nM; in data set [4] it was 316 nM; in data set [5] it was 251 nM. The logD in data set [2] turned out to be 1.8.
As to `COCC(=O)N(C)C1CCN(Cc2cc3nc(-c4cnc(N)nc4)nc(N4CCOCC4)c3s2)CC1`, the 50% inhibitory concentration (IC50) in data set [1] was 631 nM; in data set [3], 126 nM; in data set [4], 15.8 nM; in data set [5], 126 nM. Moreover, the pH-dependent lipophilicity (logD) in data set [2] is 2.7.
Take `CC(=O)N(C)C1CCCN(Cc2cc3nc(-c4cccc5[nH]ccc45)nc(N4CCOCC4)c3s2)C1` (racemic): the IC50 is 2510 nM in data set [1], 1580 nM in data set [3], 25.1 nM in data set [4] and 2510 nM in data set [5]. The log distribution coefficient (logD) in data set [2] stood at 5.
As to `CC(=O)N(C)C1CCCN(Cc2cc3nc(-c4cnc(N)nc4)nc(N4CCOCC4)c3s2)C1` (racemic), the IC50 in data set [1] was 2000 nM; in data set [3], 63.1 nM; in data set [4], 15.8 nM; in data set [5], 100 nM. In data set [2], this compound came in with a logD of 3.1.
On to `CC(=O)N(C)[C@H]1CCN(Cc2cc3nc(-c4cnc(N)nc4)nc(N4CCOCC4)c3s2)C1`, for which the half-inhibitory concentration (IC50) is 631 nM in data set [1], 20 nM in data set [3], 12.6 nM in data set [4] and 15.8 nM in data set [5]. In addition, the logD in data set [2] turned out to be 2.5.
In the same order, the values of `CNC(=O)NC1CCCN(Cc2cc3nc(-c4cnc(N)nc4)nc(N4CCOCC4)c3s2)C1` (racemic) are 2000 nM, 79.4 nM, 126 nM, 158 nM and 2.6.
In the same order, the values of `CS(=O)(=O)NC1CCN(Cc2cc3nc(-c4cccc5[nH]ccc45)nc(N4CCOCC4)c3s2)CC1` are 631 nM, 1260 nM, 20 nM, 1000 nM and 4.4.
In the same order, the values of `CC(=O)N(C)C1CCN(Cc2cc3nc(-c4cccc5[nH]ncc45)nc(N4CCOCC4)c3s2)CC1` are 2000 nM, 501 nM, 31.6 nM, 1000 nM and 4.1.
Regarding `CNC(=O)N(C)C1CCCN(Cc2cc3nc(-c4cnc(N)nc4)nc(N4CCOCC4)c3s2)C1` (racemic), the concentration for half-maximal inhibition (IC50) in data set [1] was 2000 nM; in data set [3], 79.4 nM; in data set [4], 79.4 nM; in data set [5], 200 nM. Besides, the pH-dependent lipophilicity (logD) in data set [2] was 2.9.
Take `CC(=O)NC1CCN(Cc2cc3nc(-c4cnc(N)nc4)nc(N4CCOCC4)c3s2)C1` (racemic): the 50% inhibitory concentration (IC50) in data set [1] is 501 nM; in data set [3], 31.6 nM; in data set [4], 79.4 nM; in data set [5], 79.4 nM. For the same compound, the pH-dependent lipophilicity (logD) in data set [2] is 1.9.
Turning to `COCC(=O)N(C)C1CCCN(Cc2cc3nc(-c4cccc5[nH]ncc45)nc(N4CCOCC4)c3s2)C1` (racemic), the concentration for half-maximal inhibition (IC50) was 6310 nM in data set [1], 794 nM in data set [3], 126 nM in data set [4] and 3160 nM in data set [5]. In data set [2], this compound showed a log distribution coefficient (logD) of 4.3.
`COCC(=O)NC1CCN(Cc2cc3nc(-c4cccc5[nH]ncc45)nc(N4CCOCC4)c3s2)C1` (racemic): the 50% inhibitory concentration (IC50) in data set [1] was 3160 nM; in data set [3], 316 nM; in data set [4] it was 200 nM; in data set [5], 794 nM. Also, in data set [2], the log distribution coefficient (logD) turned out to be 3.4.
Regarding `CNC(=O)NC1CCN(Cc2cc3nc(-c4cnc(N)nc4)nc(N4CCOCC4)c3s2)CC1`, the half-inhibitory concentration (IC50) in data set [1] is 631 nM; in data set [3], 25.1 nM; in data set [4], 39.8 nM; in data set [5] it was 63.1 nM. In data set [2], this compound showed a logD of 1.9.
With `CC(=O)NC1CCCN(Cc2cc3nc(-c4cnc(N)nc4)nc(N4CCOCC4)c3s2)C1` (racemic), the IC50 in data set [1] was 2000 nM; in data set [3] it was 126 nM; in data set [4], 79.4 nM; in data set [5], 158 nM. This compound yielded a logD in data set [2] of 2.5.
For `CN(C1CCCN(Cc2cc3nc(-c4cnc(N)nc4)nc(N4CCOCC4)c3s2)C1)S(C)(=O)=O` (racemic), the half-maximal inhibitory concentration (IC50) is 1000 nM in data set [1], 39.8 nM in data set [3], 5.01 nM in data set [4] and 25.1 nM in data set [5]. This compound gave a log distribution coefficient (logD) in data set [2] of 3.5.
In the same order, the values of `CN(C1CCN(Cc2cc3nc(-c4cccc5[nH]ncc45)nc(N4CCOCC4)c3s2)C1)S(C)(=O)=O` (racemic) are 1580 nM, 126 nM, 25.1 nM, 398 nM and 4.6.
Regarding `CC(=O)NC1CCN(Cc2cc3nc(-c4cccc5[nH]ccc45)nc(N4CCOCC4)c3s2)C1` (racemic), the concentration for half-maximal inhibition (IC50) in data set [1] was 1260 nM; in data set [3], 3160 nM; in data set [4], 63.1 nM; in data set [5], 2000 nM. For the same compound, the log distribution coefficient (logD) in data set [2] was 3.7.
Take `COCC(=O)NC1CCN(Cc2cc3nc(-c4cccc5[nH]ccc45)nc(N4CCOCC4)c3s2)C1` (racemic): the IC50 in data set [1] was 1000 nM; in data set [3] it was 1580 nM; in data set [4], 100 nM; in data set [5], 2510 nM. This compound also came in with a log distribution coefficient (logD) in data set [2] of 4.1.
In the same order, the values of `CN(C1CCN(Cc2cc3nc(-c4cnc(N)nc4)nc(N4CCOCC4)c3s2)C1)S(C)(=O)=O` (racemic) are 251 nM, 7.94 nM, 6.31 nM, 12.6 nM and 3.1.
In the same order, the values of `CC(=O)N(C)C1CCN(Cc2cc3nc(-c4cnc(N)nc4)nc(N4CCOCC4)c3s2)C1` (racemic) are 631 nM, 20 nM, 12.6 nM, 39.8 nM and 2.8.
In the case of `COCC(=O)N(C)C1CCCN(Cc2cc3nc(-c4cnc(N)nc4)nc(N4CCOCC4)c3s2)C1` (racemic), the IC50 was 1580 nM in data set [1], 100 nM in data set [3], 50.1 nM in data set [4] and 126 nM in data set [5]. This compound yielded a pH-dependent lipophilicity (logD) in data set [2] of 2.8.
Consider `CNC(=O)NC1CCN(Cc2cc3nc(-c4cccc5[nH]ncc45)nc(N4CCOCC4)c3s2)C1` (racemic), for which the concentration for half-maximal inhibition (IC50) in data set [1] is 2510 nM; in data set [3] it was 316 nM; in data set [4] it was 200 nM; in data set [5], 1260 nM. The compound also returned a logD in data set [2] of 2.9.
In the same order, the values of `CNC(=O)N(C)C1CCCN(Cc2cc3nc(-c4cccc5[nH]ccc45)nc(N4CCOCC4)c3s2)C1` (racemic) are 10000 nM, 3160 nM, 126 nM, 6310 nM and 4.5.
In the same order, the values of `COCC(=O)NC1CCCN(Cc2cc3nc(-c4cnc(N)nc4)nc(N4CCOCC4)c3s2)C1` (racemic) are 10000 nM, 501 nM, 316 nM, 631 nM and 3.
